These results are taken from patent US20040072746A1, “Inhibitors of monocarboxylate transport” (priority 2001, published 2004).

For one test, the target named is T1, human MCT2 (Homo sapiens, UniProt O60669).
T1 construct: The full length open reading frame for human MCT2 was then subcloned into the S. cerevisiae expression plasmid, pACES14; made in house; host or cells: Saccharomyces cerevisiae BY4742 (jen1 deletion), membrane preparation; plasmid pACES14-hMCT2
T1 sequence (O60669 1-478): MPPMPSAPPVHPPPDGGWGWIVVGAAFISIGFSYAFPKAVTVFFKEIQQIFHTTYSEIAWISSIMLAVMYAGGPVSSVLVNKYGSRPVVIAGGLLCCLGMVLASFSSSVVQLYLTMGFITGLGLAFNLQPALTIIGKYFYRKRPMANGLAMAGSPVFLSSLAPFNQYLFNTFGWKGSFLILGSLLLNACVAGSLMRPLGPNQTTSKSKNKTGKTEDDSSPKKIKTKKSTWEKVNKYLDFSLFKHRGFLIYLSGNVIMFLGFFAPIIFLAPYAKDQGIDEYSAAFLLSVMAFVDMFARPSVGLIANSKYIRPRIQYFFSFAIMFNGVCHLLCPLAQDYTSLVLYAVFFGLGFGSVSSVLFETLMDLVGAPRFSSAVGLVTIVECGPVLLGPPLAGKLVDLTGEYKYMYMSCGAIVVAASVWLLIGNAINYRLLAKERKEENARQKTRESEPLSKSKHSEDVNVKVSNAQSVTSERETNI
As to the kind of experiment: MCT filter binding assay, yeast membranes, radioligand specific binding. Conditions: ~2.5 nM radioligand. The protocol:
(§1) For yeast cells transformed with expression plasmids containing the human MCT 1-4 ORFs the ability of membrane preparations to bind radioligand was determined using a single ligand concentration/multi protein concentration binding assay. This generated an estimate of the amount of active binding protein present in each membrane preparation. The ligand concentration used will give an estimate of Bmax that is approximately 90% of the true value. 10 μl of ligand A, B or C that had been diluted 50 fold with assay buffer (50 mM HEPES, 0.1 mM EDTA, 0.15 M NaCl, pH 7.5, 0.5% BSA) was dispensed into wells of a polypropylene microtitre plate. This gives a final radiolabelled ligand concentration of ˜2.5 nM. […] The membranes were diluted to give a known amount/180 μl assay buffer. This is typically in the […] range. For the membranes with high binding site number a more dilute membrane preparation should be added. 180 μl of each membrane solution was then added to each well and incubated at 2 hours at room temperature with shaking. The membranes were harvested onto GF-B filter plates and washed with assay buffer without BSA, dried, scintillant added and counts detected using the relevant program for each ligand on a Packard Top Count plate reader.

The target of the next test is T2, human MCT3 (Homo sapiens, UniProt O95907).
T2 construct: the full length open reading frame of human MCT3 was subcloned into the S. cerevisiae expression plasmid pACES14; made in house; host or cells: Saccharomyces cerevisiae BY4742 (jen1 deletion), membrane preparation; plasmid pACES14-hMCT3
T2 sequence (O95907 1-504): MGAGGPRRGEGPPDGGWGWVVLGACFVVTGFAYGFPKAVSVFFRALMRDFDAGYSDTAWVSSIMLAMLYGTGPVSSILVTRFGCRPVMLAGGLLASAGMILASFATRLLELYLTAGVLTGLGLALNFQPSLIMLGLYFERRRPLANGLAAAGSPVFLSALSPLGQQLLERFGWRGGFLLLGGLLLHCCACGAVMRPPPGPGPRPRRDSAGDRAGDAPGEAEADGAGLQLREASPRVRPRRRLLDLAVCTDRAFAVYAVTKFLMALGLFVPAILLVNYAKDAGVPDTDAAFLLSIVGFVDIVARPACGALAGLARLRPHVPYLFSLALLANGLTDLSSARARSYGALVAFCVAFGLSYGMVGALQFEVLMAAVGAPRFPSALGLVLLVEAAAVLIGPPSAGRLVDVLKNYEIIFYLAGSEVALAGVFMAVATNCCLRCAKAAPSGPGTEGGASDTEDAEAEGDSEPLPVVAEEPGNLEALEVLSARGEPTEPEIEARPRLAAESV
The description is as above. Conditions: ~2.5 nM radioligand. The procedure: as §1

For a further test, the target named is T3, human MCT4 (Homo sapiens, UniProt O15427).
T3 construct: from the full length copy and subcloned into the S. cerevisiae expression plasmid pACES14; made in house; host or cells: Saccharomyces cerevisiae BY4742 (jen1 deletion), membrane preparation; plasmid pACES14-hMCT4
T3 sequence (O15427 1-465): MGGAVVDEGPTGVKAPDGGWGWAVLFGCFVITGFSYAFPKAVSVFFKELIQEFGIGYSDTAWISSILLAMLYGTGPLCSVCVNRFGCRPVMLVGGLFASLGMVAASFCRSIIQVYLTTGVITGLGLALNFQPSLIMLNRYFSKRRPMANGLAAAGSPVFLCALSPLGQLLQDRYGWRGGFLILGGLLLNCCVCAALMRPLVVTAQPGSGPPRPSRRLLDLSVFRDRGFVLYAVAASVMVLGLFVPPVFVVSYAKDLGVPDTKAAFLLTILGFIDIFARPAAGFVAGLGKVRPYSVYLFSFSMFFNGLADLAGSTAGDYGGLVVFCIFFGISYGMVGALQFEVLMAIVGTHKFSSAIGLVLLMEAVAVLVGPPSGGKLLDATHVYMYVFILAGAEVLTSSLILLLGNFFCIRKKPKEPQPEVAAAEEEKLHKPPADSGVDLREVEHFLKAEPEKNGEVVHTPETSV
Described as above. As to conditions: ~2.5 nM radioligand. The procedure:
as §1

A short description of test [1]: MCT filter binding assay, yeast membranes transformed with vector only. Conditions: ~2.5 nM radioligand. The procedure:
as §1

The subject of another test is MDA-MB-231 cell line. The test is described as follows: Filter binding of 3H-ligand C to MDA-MB-231 cells. Further details: species or system human. As to conditions: untransfected MDA-MB-231. The protocol:
The human breast cell line MDA-MB-231 had been previously identified as expressing low levels of MCT1 (Garcia et al., Cell. 76:865-873, 1994). The MDA-MB-231 cell line was grown. […] The cells were grown and transfected with pcDNA3-hMCT1. An increase in filter binding of ^3H-ligand C was consistently measured for transiently transfected cells when compared with control cells transfected with empty vector.

A further test has as its target T4, MCT1 (Homo sapiens, UniProt P53985, D490E).
T4 sequence (P53985 1-500 D490E): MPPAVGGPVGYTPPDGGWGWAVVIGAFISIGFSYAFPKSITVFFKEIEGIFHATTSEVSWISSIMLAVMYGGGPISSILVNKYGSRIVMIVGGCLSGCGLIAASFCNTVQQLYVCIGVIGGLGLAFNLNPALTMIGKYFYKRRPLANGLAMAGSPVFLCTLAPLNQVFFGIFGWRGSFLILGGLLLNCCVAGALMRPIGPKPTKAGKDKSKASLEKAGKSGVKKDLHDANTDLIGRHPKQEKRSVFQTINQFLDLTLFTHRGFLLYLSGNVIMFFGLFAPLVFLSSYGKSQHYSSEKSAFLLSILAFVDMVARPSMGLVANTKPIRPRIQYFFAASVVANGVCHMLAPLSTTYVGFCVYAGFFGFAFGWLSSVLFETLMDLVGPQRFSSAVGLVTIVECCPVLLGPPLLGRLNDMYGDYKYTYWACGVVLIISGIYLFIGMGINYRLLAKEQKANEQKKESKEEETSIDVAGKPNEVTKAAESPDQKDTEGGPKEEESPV
The test is described as follows: MCT filter binding assay, yeast membranes, radioligand specific binding. As to conditions: ~2.5 nM radioligand. Further details: made in house; host or cells: Saccharomyces cerevisiae BY4742 (jen1 deletion), membrane preparation; plasmid pACES14-hMCT1. The protocol: as §1

Each structure is given as a SMILES string.

`[3H]CC([3H])(C[3H])Cn1c(=O)n(C)c(=O)c2c(SCCCO)n(Cc3cccc4ccccc34)cc21` [Ligand C, 5-[(3-Hydroxypropyl)thio]-1-([2,3,3′-^3H]isobutyl)-3-methyl-6-(1-naphthalenylmethyl)-1H-pyrrolo[3,4-d]pyrimidine-2,4(3H,6H)-dione]: the “Specific binding (cpm) Average” value at human MCT2 (MCT2 (2 ug)) is 593 cpm; at human MCT2 (MCT2 (20 ug)), 213 cpm; at human MCT3 (MCT3 (2 ug)) it was 0 cpm; on human MCT3 (MCT3 (20 ug)), 40 cpm; on human MCT4 (MCT4 (2 ug)), 81 cpm; on human MCT4 (MCT4 (20 ug)), 0 cpm. Besides, the “Specific binding (cpm) Average” value was 0 cpm in test [1] (vector (2 ug)), 0 cpm in test [1] (vector (20 ug)), 3621 cpm on MCT1 (MCT1 (2 ug)) and 5553 cpm at MCT1 (MCT1 (20 ug)). Further, in the test on MDA-MB-231 cell line, the “binding sites per cell” value is around 6000 binding sites per cell.
